Assay [1] concerns Rattus norvegicus. In words: Antihypertensive activity as percentage fall in systolic blood pressure in spontaneously hypertensive rats 4 hr after 50 mg/kg po administration; NS means nonsignificant difference between treated and control group. Details: dose 50 mg/kg. The following applies: Artery, at 50 mg/kg. The class given is functional, organism-based.
Assay [2] concerns Rattus norvegicus. The assay is described as follows: Percentage fall in systolic blood pressure in spontaneously hypertensive rats 3h after 50 mg/kg p.o. administration; Not significant. It counts as functional, organism-based. Also noted: dose 50 mg/kg. The following applies: Artery, at 50 mg/kg.
The test system of assay [3] is Rattus norvegicus. In words: Antihypertensive activity as percentage fall in systolic blood pressure in spontaneously hypertensive rats 4 hr after 25 mg/kg po administration;NS means nonsignificant difference between treated and control group. The following applies: Artery, at 25 mg/kg. It counts as functional, organism-based. Details: dose 25 mg/kg.
The subject of assay [4] is Rattus norvegicus. In words: Percentage fall in systolic blood pressure in spontaneously hypertensive rats 1 hr after 50 mg/kg p.o. administration; Not significant. The following applies: Artery, at 50 mg/kg. Details: dose 50 mg/kg. The class given is functional, organism-based.
Assay [5] has as its system Rattus norvegicus. The assay is described as follows: Antihypertensive activity as percentage fall in systolic blood pressure in spontaneously hypertensive rats 3h after 25 mg/kg po administration;NS means nonsignificant difference between treated and control group. It counts as functional, organism-based. Details: dose 25 mg/kg. The following applies: Artery, at 25 mg/kg.

In assay [6] the test system is Rattus norvegicus. The assay is described as follows: Percentage fall in systolic blood pressure in spontaneously hypertensive rats 2 hr after 50 mg/kg p.o. administration; Not significant. The class given is functional, organism-based. The following applies: Artery, at 50 mg/kg. Details: dose 50 mg/kg.
Assay [7] relates to Rattus norvegicus. The assay is described as follows: Antihypertensive activity as percentage fall in systolic blood pressure in spontaneously hypertensive rats 4 hr after 50 mg/kg po administration. It counts as functional, Artery.
For assay [8], the system named is Rattus norvegicus. In words: Antihypertensive activity as percentage fall in systolic blood pressure in spontaneously hypertensive rats 2 hr after 25 mg/kg po administration. It counts as functional, Artery.
The subject of assay [9] is Rattus norvegicus. The assay is described as follows: Antihypertensive activity as percentage fall in systolic blood pressure in spontaneously hypertensive rats 1 hr after 25 mg/kg po administration. It counts as functional, Artery.
Assay [10] concerns Rattus norvegicus. In words: Antihypertensive activity as percentage fall in systolic blood pressure in spontaneously hypertensive rats 4 hr after 25 mg/kg po administration. The class given is functional, Artery.
The test system of assay [11] is Rattus norvegicus. In words: Percentage fall in systolic blood pressure in spontaneously hypertensive rats 2 hr after 50 mg/kg p.o. administration. It counts as functional, Artery. The following applies: route oral.
In assay [12] the test system is Rattus norvegicus. In words: Antihypertensive activity as percentage fall in systolic blood pressure in spontaneously hypertensive rats 1 hr after 50 mg/kg po administration. It counts as functional, Artery.
Assay [13] relates to Rattus norvegicus. In words: Antihypertensive activity as percentage fall in systolic blood pressure in spontaneously hypertensive rats 3h after 50 mg/kg po administration. The class given is functional, Artery.
Assay [14] deals with Rattus norvegicus. The assay is described as follows: Antihypertensive activity as percentage fall in systolic blood pressure in spontaneously hypertensive rats 2 hr after 25 mg/kg po administration;NS means nonsignificant difference between treated and control group. The following applies: Artery, at 25 mg/kg. It counts as functional, organism-based. Details: dose 25 mg/kg.

The subject of assay [15] is Rattus norvegicus. In words: Antihypertensive activity as percentage fall in systolic blood pressure in spontaneously hypertensive rats 1 hr after 25 mg/kg po administration;NS means nonsignificant difference between treated and control group. It counts as functional, organism-based. Also noted: dose 25 mg/kg. The conditions noted are these: Artery, at 25 mg/kg.
The test system of assay [16] is Rattus norvegicus. In words: Antihypertensive activity as percentage fall in systolic blood pressure in spontaneously hypertensive rats 3h after 25 mg/kg po administration. It counts as functional.
Assay [17] relates to Rattus norvegicus. In words: Antihypertensive activity as percentage fall in systolic blood pressure in spontaneously hypertensive rats 3h after 12.5 mg/kg po administration;NS means nonsignificant difference between treated and control group. The class given is functional, organism-based. Also noted: dose 12.5 mg/kg. The following applies: Artery, at 12.5 mg/kg.
Assay [18] has as its system Rattus norvegicus. In words: Antihypertensive activity as percentage fall in systolic blood pressure in spontaneously hypertensive rats 4 hr after 12.5 mg/kg po administration;NS means nonsignificant difference between treated and control group. Details: dose 12.5 mg/kg. The conditions noted are these: Artery, at 12.5 mg/kg. The class given is functional, organism-based.

Assay [19] deals with Rattus norvegicus. The assay is described as follows: Antihypertensive activity as percentage fall in systolic blood pressure in spontaneously hypertensive rats 2 hr after 12.5 mg/kg po administration;NS means nonsignificant difference between treated and control group. It counts as functional, organism-based. Details: dose 12.5 mg/kg. The conditions noted are these: Artery, at 12.5 mg/kg.

For assay [20], the system named is Rattus norvegicus. The assay is described as follows: Antihypertensive activity as percentage fall in systolic blood pressure in spontaneously hypertensive rats 1 hr after 12.5 mg/kg po administration;NS means nonsignificant difference between treated and control group. The class given is functional, organism-based. Details: dose 12.5 mg/kg. The following applies: Artery, at 12.5 mg/kg.

Assay [21] deals with Rattus norvegicus. The assay is described as follows: Antihypertensive activity as percentage fall in systolic blood pressure in spontaneously hypertensive rats 2 hr after 1.25 mg/kg po administration.
Assay [22] relates to Rattus norvegicus. The assay is described as follows: Antihypertensive activity as percentage fall in systolic blood pressure in spontaneously hypertensive rats 4 hr after 1.25 mg/kg po administration.
Assay [23] has as its system Rattus norvegicus. The assay is described as follows: Antihypertensive activity as percentage fall in systolic blood pressure in spontaneously hypertensive rats 2 hr after 0.31 mg/kg po administration. It counts as functional, Artery.
In assay [24] the test system is Rattus norvegicus. In words: Antihypertensive activity as percentage fall in systolic blood pressure in spontaneously hypertensive rats 1 hr after 0.31 mg/kg po administration. It counts as functional, Artery.
Assay [25] deals with Rattus norvegicus. The assay is described as follows: Antihypertensive activity as percentage fall in systolic blood pressure in spontaneously hypertensive rats 4 hr after 0.31 mg/kg po administration. It counts as functional, Artery.
Assay [26] concerns Rattus norvegicus. In words: Antihypertensive activity as percentage fall in systolic blood pressure in spontaneously hypertensive rats 1 hr after 1.25 mg/kg po administration.
Assay [27] deals with Rattus norvegicus. The assay is described as follows: Antihypertensive activity as percentage fall in systolic blood pressure in spontaneously hypertensive rats 3h after 1.25 mg/kg po administration.
In assay [28] the test system is Rattus norvegicus. The assay is described as follows: Antihypertensive activity as percentage fall in systolic blood pressure in spontaneously hypertensive rats 3h after 0.31 mg/kg po administration. The class given is functional, Artery.

The record followed here is ChEMBL document CHEMBL1122367, “Synthesis and antihypertensive activity of a series of spiro[1,3,4,6,7,11b-hexahydro-2H-benzo[a]quinolizine-2,5'-oxazolidin-2'-one]s” (1983).

Activity calls are given as the source filed them. The rule behind the calls is not given here.

Take `CC[C@H]1CN2CCc3cc(OC)c(OC)cc3[C@@H]2C[C@]12CNC(=O)O2`: the Fall entry with Rattus norvegicus [1], in the assay on Rattus norvegicus [2], in the assay on Rattus norvegicus [3], in the assay on Rattus norvegicus [4], in the assay on Rattus norvegicus [5] and in the assay with Rattus norvegicus [6] was “Not significant” throughout.
Take `COc1cc2c(cc1OC)[C@@H]1C[C@]3(CNC(=O)O3)[C@@H](C)CN1CC2`: the Fall in the assay with Rattus norvegicus [7] is 25%; with Rattus norvegicus [8] it was 19%; in the assay on Rattus norvegicus [9], 27%; in the assay with Rattus norvegicus [10] it was 15%; with Rattus norvegicus [11], 41%; in the assay with Rattus norvegicus [12], 47%. Also, the values for the Fall entry with Rattus norvegicus [5] and in the assay on Rattus norvegicus [13] were “Not significant” and 37%, respectively.
On to `O=C1NC[C@@]2(CCN3CCc4ccccc4[C@@H]3C2)O1`, for which the Fall was 12% in the assay with Rattus norvegicus [7]; “Not significant” with Rattus norvegicus [14]; 20% in the assay on Rattus norvegicus [9]; 25% with Rattus norvegicus [10]; 26% in the assay with Rattus norvegicus [11]; 22% with Rattus norvegicus [12]. Moreover, the Fall result was “Not significant” in the assay with Rattus norvegicus [5] and 14% with Rattus norvegicus [13].
Take `CCN1C[C@]2(CCN3CCc4cc(OC)c(OC)cc4[C@@H]3C2)OC1=O`: the Fall in the assay on Rattus norvegicus [7] is 18%; with Rattus norvegicus [2], “Not significant”; in the assay on Rattus norvegicus [14] it was “Not significant”; with Rattus norvegicus [15], “Not significant”; with Rattus norvegicus [3], “Not significant”; in the assay with Rattus norvegicus [11], 30%. Also, the Fall is 43% in the assay on Rattus norvegicus [12] and “Not significant” in the assay with Rattus norvegicus [16] (Artery, at 25 mg/kg).
In the case of `O=C(NC1CCN(CCc2c[nH]c3ccccc23)CC1)c1ccccc1` [INDORAMIN], the Fall result with Rattus norvegicus [17], in the assay with Rattus norvegicus [18], in the assay on Rattus norvegicus [19] and in the assay with Rattus norvegicus [20] was “inactive” each time. Besides, the Fall in the assay on Rattus norvegicus [8] is recorded as 28%; in the assay on Rattus norvegicus [9], 27%; in the assay on Rattus norvegicus [10] it was 30%; with Rattus norvegicus [16], 34%.
Take `COc1cc2nc(N3CCN(C(=O)c4ccco4)CC3)nc(N)c2cc1OC` [PRAZOSIN]: the Fall in the assay with Rattus norvegicus [21] is 46%; in the assay with Rattus norvegicus [22], 31%; in the assay with Rattus norvegicus [23], 31%; in the assay on Rattus norvegicus [24], 19%; in the assay on Rattus norvegicus [25], 26%; in the assay with Rattus norvegicus [26], 26%. Moreover, the Fall in the assay on Rattus norvegicus [27] was 36%; with Rattus norvegicus [28], 21%.
